pIC50: −log10 of the molar value.
Columns and labels:
[1] = target: human A2a adenosine receptor (Homo sapiens (Human), UniProt P29274); experiment: A2a receptor affinity radioligand binding assay ([3H] SCH58261); details: membranes from HEK293 or CHO cells expressing human A2a receptor
How it was run: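 IC50 values come from 4-parameter logistic fits of filter-bound radioactivity, normalized to total (1% DMSO) and nonspecific (1 μM ZM241385) binding. Recombinant human A2a membranes (HEK293 or CHO) were exposed to compound for 15–30 min, then to [3H]SCH58261 (4 nM working dilution) for 60 min at room temperature in Tris pH 7.4/MgCl2/Tween20 buffer.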

[2] = target: human A2b adenosine receptor (Homo sapiens (Human), UniProt P29275); experiment: A2b radioligand filtration binding assay; details: membranes from HEK293 cells expressing human A2b receptor
Sequence of human A2b adenosine receptor (P29275 whole entry): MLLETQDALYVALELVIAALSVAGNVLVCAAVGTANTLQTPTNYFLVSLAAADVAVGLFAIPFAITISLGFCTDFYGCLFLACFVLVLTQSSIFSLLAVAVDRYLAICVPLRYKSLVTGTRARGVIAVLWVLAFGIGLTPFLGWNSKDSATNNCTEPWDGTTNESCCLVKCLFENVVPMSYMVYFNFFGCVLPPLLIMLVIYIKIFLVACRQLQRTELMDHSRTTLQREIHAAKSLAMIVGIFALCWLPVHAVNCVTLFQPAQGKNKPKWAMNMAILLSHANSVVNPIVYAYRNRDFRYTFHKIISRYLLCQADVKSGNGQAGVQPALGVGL
How it was run: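 Displacement of a tritiated A2b antagonist (working solution 14 nM) from human A2b receptor membranes of recombinant HEK293 cells, in Mg/Ca-free PBS pH 7.4, 60 min at room temperature after 15 to 30 min compound preincubation. Filtered, counted; normalized to total and 20 μM NECA non-specific binding; IC50 from logistic fit.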

Sequence of human A2a adenosine receptor (P29274 whole entry): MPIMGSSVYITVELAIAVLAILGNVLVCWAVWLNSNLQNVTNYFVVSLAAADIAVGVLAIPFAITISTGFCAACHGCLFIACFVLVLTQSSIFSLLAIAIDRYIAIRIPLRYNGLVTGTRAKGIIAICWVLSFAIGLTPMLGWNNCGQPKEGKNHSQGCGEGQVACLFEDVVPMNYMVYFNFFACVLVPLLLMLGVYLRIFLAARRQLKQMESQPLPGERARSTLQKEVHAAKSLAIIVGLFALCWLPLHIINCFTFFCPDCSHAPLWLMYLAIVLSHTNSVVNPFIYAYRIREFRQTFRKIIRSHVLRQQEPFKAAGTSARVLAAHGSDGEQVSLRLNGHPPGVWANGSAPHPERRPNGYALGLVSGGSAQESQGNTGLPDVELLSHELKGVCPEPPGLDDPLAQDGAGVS

| pIC50 [1] | pIC50 [2] | Structure (SMILES) |
| --- | --- | --- |
| 7.86 | 6.32 | COc1cc2nc(N)n3nc([C@@H]4CCCN(c5cnc(OC(F)F)c(C)c5)C4)nc3c2cc1F [Example 24, (R)-2-(1-(6-(difluoromethoxy)-5-methylpyridin-3-yl)piperidin-3-yl)-9-fluoro-8-methoxy-[1,2,4]triazolo[1,5-c]quinazolin-5-amine] |
| 9.22 | 7.21 | COc1cc2nc(N)n3nc([C@@H]4CCCN(c5cc(C)c(=O)n(C(F)F)c5)C4)nc3c2cc1F [Example 25, (R)-5-(3-(5-amino-9-fluoro-8-methoxy-[1,2,4]triazolo[1,5-c]quinazolin-2-yl)piperidin-1-yl)-1-(difluoromethyl)-3-methylpyridin-2(1H)-one] |
| 8.41 | 7.31 | COc1ccc(N2CCC[C@@H](c3nc4c5cc(F)c(OC)cc5nc(N)n4n3)C2)cn1 [Example 26, (R)-9-fluoro-8-methoxy-2-(1-(6-methoxypyridin-3-yl)piperidin-3-yl)-[1,2,4]triazolo[1,5-c]quinazolin-5-amine] |
| 8.74 | 6.07 | COc1cc2nc(N)n3nc([C@@H]4CCCN(c5nc(C)n(CC(C)(C)O)n5)C4)nc3c2cc1F [Example 27, (R)-1-(3-(3-(5-amino-9-fluoro-8-methoxy-[1,2,4]triazolo[1,5-c]quinazolin-2-yl)piperidin-1-yl)-5-methyl-1H-1,2,4-triazol-1-yl)-2-methylpropan-2-ol] |
| 8.55 | 7.12 | COc1cc(F)cc2c1nc(N)n1nc([C@@H]3CCCN(c4cnn(CC(C)(C)O)c4)C3)nc21 [Example 28, (R)-1-(4-(3-(5-amino-9-fluoro-7-methoxy-[1,2,4]triazolo [1,5-c]quinazolin-2-yl)piperidin-1-yl)-1H-pyrazol-1-yl)-2-methylpropan-2-ol] |
| 8.82 | 6.52 | COc1cc(F)cc2c1nc(N)n1nc([C@@H]3CCCN(c4cnn(CC(C)(C)O)c4C)C3)nc21 [Example 29, (R)-1-(4-(3-(5-amino-9-fluoro-7-methoxy-[1,2,4]triazolo [1,5-c]quinazolin-2-yl)piperidin-1-yl)-5-methyl-1H-pyrazol-1-yl)-2-methylpropan-2-ol] |
| 9.40 | 7.01 | COc1cc(F)cc2c1nc(N)n1nc([C@@H]3CCCN(c4cn(CC(C)(C)O)nc4C)C3)nc21 [Example 30, (R)-1-(4-(3-(5-amino-9-fluoro-7-methoxy-[1,2,4]triazolo [1,5-c]quinazolin-2-yl)piperidin-l-yl)-3-methyl-1H-pyrazol-1-yl)-2-methylpropan-2-ol] |
| 8.77 | 7.02 | COc1cc(F)cc2c1nc(N)n1nc([C@@H]3CCCN(c4cnn(CC5(O)CCC5)c4)C3)nc21 [Example 31, (R)-1-((4-(3-(5-amino-9-fluoro-7-methoxy-[1,2,4]triazolo [1,5-c]quinazolin-2-yl)piperidin-l-yl)-1H-pyrazol-1-yl)methyl)cyclobutan-1-ol] |
| 9.30 | 8.16 | COc1cc(F)cc2c1nc(N)n1nc([C@@H]3CCCN(c4cnn(C(C)(C)CO)c4)C3)nc21 [Example 32, (R)-2-(4-(3-(5-amino-9-fluoro-7-methoxy-[1,2,4]triazolo[1,5-c]quinazolin-2-yl)piperidin-1-yl)-1H-pyrazol-1-yl)-2-methylpropan-1-ol] |
| 8.44 | 7.76 | COc1cc(F)cc2c1nc(N)n1nc([C@@H]3CCCN(c4ccc(OC(F)F)nc4)C3)nc21 [Example 33, (R)-2-(1-(6-(difluoromethoxy)pyridin-3-yl)piperidin-3-yl)-9-fluoro-7-methoxy-[1,2,4]triazolo[1,5-c]quinazolin-5-amine] |
| 8.85 | 7.53 | COc1ccc(N2CCC[C@@H](c3nc4c5cc(F)cc(OC)c5nc(N)n4n3)C2)cn1 [Example 34, (R)-9-fluoro-7-methoxy-2-(1-(6-methoxypyridin-3-yl)piperidin-3-yl)-[1,2,4]triazolo[1,5-c]quinazolin-5-amine] |
